According to ChEMBL document CHEMBL4138216, “Design, synthesis and structure-activity relationship of a focused library of β-phenylalanine derivatives as novel eEF2K inhibitors with apoptosis-inducing mechanisms in breast cancer” (Eur J Med Chem, 2018):
Active and inactive are the calls of the source. The rule behind the calls is not given here.

Experiments:
MDA-MB-436 [1] = experiment: Induction of apoptosis in human MDA-MB-436 cells assessed as increase in caspase-3 cleavage after 12 to 36 hrs by Western blot method; format: functional, cell-based
[2] = biological target: T1, Eukaryotic elongation factor 2 kinase (Homo sapiens, UniProt O00418); experiment: Inhibition of eEF2K (unknown origin) using peptide MH-1 as substrate after 2 hrs by ADP-Glo luminescent assay
T1 sequence (O00418 whole entry): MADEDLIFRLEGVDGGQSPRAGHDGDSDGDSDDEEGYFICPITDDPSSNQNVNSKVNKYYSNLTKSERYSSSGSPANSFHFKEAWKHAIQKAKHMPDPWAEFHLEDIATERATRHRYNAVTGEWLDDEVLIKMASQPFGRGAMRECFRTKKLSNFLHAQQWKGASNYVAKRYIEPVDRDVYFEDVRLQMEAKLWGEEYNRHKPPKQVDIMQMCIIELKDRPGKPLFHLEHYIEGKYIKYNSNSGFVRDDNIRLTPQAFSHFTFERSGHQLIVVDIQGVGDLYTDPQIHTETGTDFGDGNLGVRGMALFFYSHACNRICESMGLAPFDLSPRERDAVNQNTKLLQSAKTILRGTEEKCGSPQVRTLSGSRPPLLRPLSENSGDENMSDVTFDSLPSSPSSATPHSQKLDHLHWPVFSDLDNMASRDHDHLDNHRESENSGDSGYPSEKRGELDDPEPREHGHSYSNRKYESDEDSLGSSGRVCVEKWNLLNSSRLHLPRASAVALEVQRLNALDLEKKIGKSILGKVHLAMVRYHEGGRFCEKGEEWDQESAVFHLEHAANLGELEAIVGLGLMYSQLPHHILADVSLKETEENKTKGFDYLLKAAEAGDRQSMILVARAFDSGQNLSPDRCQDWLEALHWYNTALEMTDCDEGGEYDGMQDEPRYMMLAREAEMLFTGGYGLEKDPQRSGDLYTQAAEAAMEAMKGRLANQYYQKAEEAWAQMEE

Mus musculus [3] = experiment: Toxicity in BALB/c nude mouse xenografted with human MDA-MB-231 cells assessed as body weight loss at 50 to 100 mg/kg, ig qd measured every 3 days for 24 days during compound dosing; format: organism-based; conditions: in vivo, po, 576 h
MDA-MB-231 [4] = experiment: Induction of apoptosis in human MDA-MB-231 cells xenografted in BALB/c nude mouse at 25 to 100 mg/kg, ig qd measured after 24 days by TUNEL assay; format: functional, organism-based
MDA-MB-436 [5] = experiment: Induction of apoptosis in human MDA-MB-436 cells assessed as loss of mitochondrial membrane potential after 12 to 36 hrs by rhodamine123 staining-based flow cytometric method; format: functional, cell-based
MDA-MB-231 [6] = experiment: Induction of apoptosis in human MDA-MB-231 cells assessed as increase in caspase-3 cleavage after 12 to 36 hrs by Western blot method; format: functional, cell-based
Mus musculus [7] = experiment: Toxicity in BALB/c nude mouse xenografted with human MDA-MB-231 cells assessed as effect on liver weight at 25 to 100 mg/kg, ig qd measured after 24 days; format: organism-based; conditions: in vivo, po, 576 h
MDA-MB-436 [8] = experiment: Induction of apoptosis in human MDA-MB-436 cells assessed as increase in PARP cleavage after 12 to 36 hrs by Western blot method; format: functional, cell-based
MDA-MB-231 [9] = experiment: Induction of apoptosis in human MDA-MB-231 cells assessed as membrane blebbing by phase contrast microscopy; format: functional, cell-based
MDA-MB-231 [10] = experiment: Induction of apoptosis in human MDA-MB-231 cells assessed as increase in caspase-8 cleavage after 12 to 36 hrs by Western blot method; format: functional, cell-based
Mus musculus [11] = experiment: In vivo inhibition of eEF2K phosphorylation in tumor of BALB/c nude mouse xenografted with human MDA-MB-231 cells at 25 to 100 mg/kg, ig qd measured after 24 days by Western blot method; format: functional, organism-based
MDA-MB-231 [12] = experiment: Induction of apoptosis in human MDA-MB-231 cells assessed as loss of mitochondrial membrane potential after 12 to 36 hrs by rhodamine123 staining-based flow cytometric method; format: functional, cell-based
MDA-MB-436 [13] = experiment: Induction of apoptosis in human MDA-MB-436 cells assessed as upregulation of Bax expression after 12 to 36 hrs by Western blot method; format: functional, cell-based
Mus musculus [14] = experiment: Toxicity in BALB/c nude mouse xenografted with human MDA-MB-436 cells assessed as decrease in spleen weight at 100 mg/kg, ig qd measured after 24 days; format: organism-based; conditions: in vivo, po, 576 h
MDA-MB-436 [15] = experiment: Induction of apoptosis in human MDA-MB-436 cells assessed as DNA condensation after 12 to 36 hrs by Hoechst 33258 staining-based fluorescence assay; format: functional, cell-based
Mus musculus [16] = experiment: In vivo inhibition of eEF2K phosphorylation in tumor of BALB/c nude mouse xenografted with human MDA-MB-231 cells at 25 to 100 mg/kg, ig qd measured after 24 days by immunohistochemical analysis; format: functional, organism-based
Mus musculus [17] = experiment: Toxicity in BALB/c nude mouse xenografted with human MDA-MB-436 cells assessed as body weight loss at 25 mg/kg, ig qd measured every 3 days for 24 days during compound dosing; format: organism-based; conditions: in vivo, po, 576 h
Mus musculus [18] = experiment: Toxicity in BALB/c nude mouse xenografted with human MDA-MB-231 cells assessed as body weight loss at 25 mg/kg, ig qd measured every 3 days for 24 days during compound dosing; format: organism-based; conditions: in vivo, po
Mus musculus [19] = experiment: Toxicity in BALB/c nude mouse xenografted with human MDA-MB-436 cells assessed as effect on kidney weight at 25 to 100 mg/kg, ig qd measured after 24 days; format: organism-based; conditions: in vivo, po, 576 h
MDA-MB-231 [20] = experiment: Induction of apoptosis in human MDA-MB-231 cells assessed as formation of apoptotic bodies by phase contrast microscopy; format: functional, cell-based
MDA-MB-436 [21] = experiment: Induction of apoptosis in human MDA-MB-436 cells assessed as downregulation of Bcl-2 expression after 12 to 36 hrs by Western blot method; format: functional, cell-based
MDA-MB-231 [22] = experiment: Induction of apoptosis in human MDA-MB-231 cells assessed as upregulation of Bax expression after 12 to 36 hrs by Western blot method; format: functional, cell-based
MDA-MB-231 [23] = experiment: Induction of apoptosis in human MDA-MB-231 cells xenografted in BALB/c nude mouse assessed as decrease in pro-caspase-3 levels at 25 to 100 mg/kg, ig qd measured after 24 days by immunohistochemical analysis; format: functional, organism-based
Mus musculus [24] = experiment: Toxicity in BALB/c nude mouse xenografted with human MDA-MB-436 cells assessed as body weight loss at 50 to 100 mg/kg, ig qd measured every 3 days for 24 days during compound dosing; format: organism-based; conditions: in vivo, po, 576 h
Mus musculus [25] = experiment: Toxicity in BALB/c nude mouse xenografted with human MDA-MB-231 cells assessed as effect on kidney weight at 25 to 100 mg/kg, ig qd measured after 24 days; format: organism-based; conditions: in vivo, po, 576 h
MDA-MB-231 [26] = experiment: Induction of apoptosis in human MDA-MB-231 cells xenografted in BALB/c nude mouse assessed as increase in caspase-3 cleavage at 25 to 100 mg/kg, ig qd measured after 24 days by Western blot method; format: functional, organism-based
Mus musculus [27] = experiment: Toxicity in BALB/c nude mouse xenografted with human MDA-MB-436 cells assessed as effect on liver weight at 25 to 100 mg/kg, ig qd measured after 24 days; format: organism-based; conditions: in vivo, po, 576 h
Mus musculus [28] = experiment: Toxicity in BALB/c nude mouse xenografted with human MDA-MB-231 cells assessed as decrease in spleen weight at 100 mg/kg, ig qd measured after 24 days; format: organism-based; conditions: in vivo, po, 576 h

SMILES: N#Cc1ccc(S(=O)(=O)NC(CC(=O)O)c2ccc(Cl)cc2Cl)cc1 (stereo not drawn)
- Activity (MDA-MB-436 [1]): Active
- IC50 [2]: 5.5 µM
- Activity (Mus musculus [3]): Non-Toxic
- Activity (MDA-MB-231 [4]): Active
- Activity (MDA-MB-436 [5]): Active
- Activity (MDA-MB-231 [6]): Active
- Activity (Mus musculus [7]): Non-Toxic
- Activity (MDA-MB-436 [8]): Active
- Activity (MDA-MB-231 [9]): Active
- Activity (MDA-MB-231 [10]): Active
- inhibition (Mus musculus [11]): Active
- Activity (MDA-MB-231 [12]): Active
- Activity (MDA-MB-436 [13]): Active
- Activity (Mus musculus [14]): Toxic
- Activity (MDA-MB-436 [15]): Active
- inhibition (Mus musculus [16]): Active
- Activity (Mus musculus [17]): Toxic
- Activity (Mus musculus [18]): Toxic
- Activity (Mus musculus [19]): Non-Toxic
- Activity (MDA-MB-231 [20]): Active
- Activity (MDA-MB-436 [21]): Active
- Activity (MDA-MB-231 [22]): Active
- Activity (MDA-MB-231 [23]): Active
- Activity (Mus musculus [24]): Non-Toxic
- Activity (Mus musculus [25]): Non-Toxic
- Activity (MDA-MB-231 [26]): Active
- Activity (Mus musculus [27]): Non-Toxic
- Activity (Mus musculus [28]): Toxic
